Where two headings read alike, the source gives them in different places.

The subject of data set [1] is Hep-G2 human hepatoma cell line. As to the kind of experiment: cells. The conditions noted are these: for GI50: SRB assay, 48 h, Hep-G2. It is filed as cell-based. As to the method: (§1) All the newly synthesized compounds were screened for their in vitro anticancer activity against six cancer cell lines: SK-MEL-2, MCF-7, IMR-32, MG-63, HT-29 and Hep-G2 by SRB assay, using adriamycin as a standard drug. All the synthesized derivatives 4(a–n) were also tested for their cytotoxic effect on normal cell lines i.e., NIH/3T3 (murine embryonic fibroblast by the SRB assay method. The cell lines were grown in RPMI 1640 medium containing 10% fetal bovine serum and 2 mM L-glutamine. For the present screening experiments, cells were inoculated into 96 well microtiter plates in 90 µL at 5000 cells per well. After cell inoculation, the microtiter plates were incubated at 37 °C, 5% CO2, 95% air and 100% relative humidity for 24 h prior to addition of experimental drugs. Experimental drugs were solubilized in appropriate solvent to prepare stock of 10^−2 concentration. At the time of experiment four 10-fold serial dilutions were made using complete medium. Aliquots of 10 µL of these different drug dilutions were added to the appropriate micro-titer wells already containing 90 µL of medium, resulting in the required final drug concentrations. After compound addition, plates were incubated at standard conditions for 48 h. and assay was terminated by the addition of cold trichloroacetic acid (TCA). Cells were fixed in situ by the gentle addition of […] (final concentration, 10% TCA) and incubated for 60 min at 4 °C. The supernatant was discarded; the plates were washed five times with tap water and air dried.
(§2) Sulforhodamine B (SRB) solution (50 µL) at 0.4% (w/v) in 1% acetic acid was added to each of the wells, and plates were incubated for 20 min at room temperature. After staining, unbound dye was recovered and the residual dye was removed by washing five times with 1% acetic acid. The plates were air dried. Bound stain was subsequently eluted with 10 mM trizma base, and the absorbance was read on an ELISA plate reader at a wavelength of 540 nm with 690 nm reference wavelength. All the tests were repeated in at least three independent experiments at the concentrations of 10, 20, 40 and 80 µg/mL [57].

For data set [2], the system named is SK-MEL-2 human melanoma cancer cell line. As to the kind of experiment: cells. It is filed as cell-based. The conditions noted are these: SRB assay, 48 h, read-out: GI50 SKMEL-2. As to the method:
as §1, §2

Data set [3] relates to HT-29 human colon cancer cell line. As to the kind of experiment: cells. The conditions noted are these: for anticancer activity compared with standard drug adriamycin, HT-29: HT-29 (human colon cancer) cell line; for GI50: SRB assay, 48 h, HT-29. It is filed as cell-based. As to the method:
as §1, §2

Data set [4] concerns MCF-7 human breast cancer cell line. The data set can be described thus: cells. The following applies: 48 h. It is filed as cell-based. As to the method: as §1, §2
The test system of data set [5] is MG-63 human osteosarcoma cell line. As to the kind of experiment: cells. It is filed as cell-based. The conditions noted are these: SRB assay, 48 h. As to the method: as §1, §2
In data set [6] the test system is IMR-32 neuroblastoma cell line. The data set can be described thus: cells. It is filed as cell-based, human. The conditions noted are these: SRB assay, 48 h. As to the method:
as §1, §2

The next data set can be described thus: in vitro. It is filed as cell-based. The conditions noted are these: mouse; SRB assay, normal murine embryonic fibroblast cell line; read-out: GI50 NIH/3T3. As to the method: as §1, §2
The subject of data set [7] is SK-MEL-2 human melanoma cancer cell line. It is filed as cell-based. The following applies: at the GI50 concentration, in comparison to control cells.
Data set [8] deals with NIH/3T3 normal murine embryonic fibroblast cell line. As to the kind of experiment: in vitro. The conditions noted are these: SRB assay. It is filed as cell-based. As to the method:
as §1, §2

Data set [9] has as its system IMR-32 neuroblastoma cell line. It is filed as cell-based, human. The conditions noted are these: at the GI50 concentration, in contrast to control cells.

With `CCOP(=O)(OCC)C(N/N=C1\C(=O)Nc2ccccc21)c1ccc(O)c(C)c1` (stereo not drawn) [4l, (Z)-Diethyl (4-hydroxy-3-methylphenyl)(2-(2-oxoindolin-3-ylidene)hydrazinyl)methylphosphonate], the melting point is 190 to 192 °C. Further, the “anticancer activity compared with standard drug Adriamycin, Hep-G2” value in data set [1] (Hep-G2 (human hepatoma) cell line) is given as “equipotent”. In addition, the GI50 in data set [1] (Homo sapiens, HepG2) was < 0.1 µM. Moreover, in data set [2] (Homo sapiens), the GI50 was 76.4 µM. Further, the “anticancer activity compared with standard drug adriamycin, HT-29” value in data set [3] is recorded as “equipotent”. The GI50 in data set [3] (Homo sapiens) is < 0.1 µM. In addition, in data set [4] (Homo sapiens, MCF7, SRB assay), the GI50 stood at 78.4 µM. In data set [5] (Homo sapiens), the GI50 is < 0.1 µM. The compound also yielded a GI50 in data set [6] (Homo sapiens) of 89.8 µM. In addition, the GI50 in the data set “in vitro” is > 250 µM.
In turn, `CCOP(=O)(OCC)C(N/N=C1\C(=O)Nc2ccccc21)c1ccc([N+](=O)[O-])cc1` (stereo not drawn) [4m, (Z)-Diethyl (4-nitrophenyl)(2-(2-oxoindolin-3-ylidene)hydrazinyl)methylphosphonate] registered a melting point of 172 to 174 °C. Moreover, in [1] (Homo sapiens, HepG2), the GI50 came to 13.3 µM. For the same compound, in [2] (Homo sapiens), the GI50 amounted to 44.2 µM. For the same compound, in data set [3], the “anticancer activity compared with standard drug adriamycin, HT-29” value is “equipotent”. For the same compound, the GI50 in [3] (Homo sapiens) was < 0.1 µM. In data set [4] (Homo sapiens, MCF7, SRB assay), this compound came in with a GI50 of 77.2 µM. For the same compound, the GI50 in data set [5] (Homo sapiens) was < 0.1 µM. Also, the GI50 in data set [6] (Homo sapiens) is 56.6 µM. Also, in the data set “in vitro”, the GI50 is > 250 µM.
As to `CCOP(=O)(OCC)C(N/N=C1\C(=O)Nc2ccccc21)c1ccccc1O` (stereo not drawn) [4k, (Z)-Diethyl (2-hydroxyphenyl)(2-(2-oxoindolin-3-ylidene)hydrazinyl)methylphosphonate], the melting point was in the range of 152 to 154 °C. Besides, in [1] (Homo sapiens, HepG2), the GI50 was 11.7 µM. In addition, the GI50 in [2] (Homo sapiens) came out at 66.2 µM. The GI50 in data set [3] (Homo sapiens) was 26.1 µM. For the same compound, the GI50 in data set [4] (Homo sapiens, MCF7, SRB assay) was > 100 µM. Also, the GI50 in data set [5] (Homo sapiens) is < 0.1 µM. The compound also showed a GI50 in [6] (Homo sapiens) of 44.1 µM. Also, the GI50 in the data set “in vitro” is > 250 µM.
Turning to `CCOP(=O)(OCC)C(NN=C1C(=O)Nc2ccccc21)c1ccc(O)c(OC)c1` (stereo not drawn) [4g, Diethyl(4-hydroxy-3-methoxyphenyl)(2-(2-oxoindolin-3-ylidene)hydrazinyl)methylphosphonates], the GI50 in data set [1] was 32 µM; in [2], 24 µM; in data set [3], 12.2 µM; in data set [4] (SRB assay) it was > 100 µM; in data set [5], < 0.1 µM; in [6], > 100 µM. For the same compound, the GI50 in data set [8] is > 250 µM. In data set [7], the “morphological changes in SK-MEL-2 cancer cell lines” value was “cell detachment, cell wall deformation, cell shrinkage and reduced number of viable cells”.
`CCOP(=O)(OCC)C(NN=C1C(=O)Nc2ccccc21)c1ccc(O)cc1` (stereo not drawn) [4f, Diethyl(4-hydroxyphenyl)(2-(2-oxoindolin-3-ylidene)hydrazinyl)methylphosphonate] displayed a melting point of 140 to 142 °C. The compound also came in with a GI50 in [1] (Homo sapiens, HepG2) of 12.2 µM. In addition, the GI50 in data set [2] (Homo sapiens) turned out to be 51.6 µM. For the same compound, in [3], the “anticancer activity compared with standard drug adriamycin, HT-29” value is on record as “equipotent”. The GI50 in data set [3] (Homo sapiens) is < 0.1 µM. In addition, the GI50 in data set [4] (Homo sapiens, MCF7, SRB assay) was > 100 µM. The GI50 in data set [5] (Homo sapiens) was < 0.1 µM. In addition, the GI50 in [6] (Homo sapiens) was < 0.1 µM. Further, the “morphological changes in IMR-32 cancer cells” value in [9] was “cell detachment, cell wall deformation, cell shrinkage and reduced number of viable cells”. Further, the GI50 in “in vitro” was > 250 µM.
As to `CCOP(=O)(OCC)C(N/N=C1\C(=O)Nc2ccccc21)c1scnc1C` (stereo not drawn) [4n, (Z)-Diethyl (4-methylthiazole-5-yl)(2-(2-oxoindolin-3-ylidene)hydrazinyl)methylphosphonate], the melting point is 188 to 190 °C. Besides, the GI50 in data set [1] (Homo sapiens, HepG2) worked out at 24.9 µM. Also, the GI50 in [2] (Homo sapiens) came to 33.1 µM. For the same compound, the “anticancer activity compared with standard drug adriamycin, HT-29” value in data set [3] is on record as “equipotent”. In addition, the GI50 in data set [3] (Homo sapiens) was < 0.1 µM. Further, in data set [4] (Homo sapiens, MCF7, SRB assay), the GI50 came out at 58.2 µM. The GI50 in data set [5] (Homo sapiens) is < 0.1 µM. The GI50 in [6] (Homo sapiens) was 67.8 µM. The GI50 in the data set “in vitro” was > 250 µM.
